Results from the kinase profiling compilation of Christmann-Franck et al. (2016).

Assays:
Assay in all cases: radiometric filter-binding kinase assay, Kinase HotSpot
Settings in all cases: compound 0.5 µM; ATP 10 µM
MAPKAPK3 (human) = MAPKAPK3 (human) (UniProt Q16644)
MAPK9 (human) = MAPK9 (human) (UniProt P45984)
SYK (human) = SYK (human) (UniProt P43405)
CSNK1G2 (human) = CSNK1G2 (human) (UniProt P78368)
[1] = biological target: TYK2 JH1 catalytic (human) (UniProt P29597)
BRSK1 (human) = BRSK1 (human) (UniProt Q8TDC3)
RPS6KA6 KD1 KD2 (human) = RPS6KA6 KD1 KD2 (human) (UniProt Q9UK32)
ULK1 (human) = ULK1 (human) (UniProt O75385)
MAPK13 (human) = MAPK13 (human) (UniProt O15264)
PDPK1 (human) = PDPK1 (human) (UniProt O15530)
RPS6KA2 KD1 KD2 (human) = RPS6KA2 KD1 KD2 (human) (UniProt Q15349)
PRKCB1 (human) = PRKCB1 (human) (UniProt P05771)
PTK6 (human) = PTK6 (human) (UniProt Q13882)
TAOK1 (human) = TAOK1 (human) (UniProt Q7L7X3)
NTRK2 (human) = NTRK2 (human) (UniProt Q16620)
ROS1 (human) = ROS1 (human) (UniProt P08922)
DAPK3 (human) = DAPK3 (human) (UniProt O43293)
EPHB2 (human) = EPHB2 (human) (UniProt P29323)
CDK1 CCNB1 (human) = CDK1 CCNB1 (human) (UniProt P06493+P14635)
MET (human) = MET (human) (UniProt P08581)
MAP4K4 (human) = MAP4K4 (human) (UniProt O95819)
AXL (human) = AXL (human) (UniProt P30530)
ZAP70 (human) = ZAP70 (human) (UniProt P43403)
DAPK2 (human) = DAPK2 (human) (UniProt Q9UIK4)
CDK2 CCNA2 (human) = CDK2 CCNA2 (human) (UniProt P24941+P20248)
LIMK1 (human) = LIMK1 (human) (UniProt P53667)
CAMK2A (human) = CAMK2A (human) (UniProt Q9UQM7)
TGFBR1 (human) = TGFBR1 (human) (UniProt P36897)
HIPK4 (human) = HIPK4 (human) (UniProt Q8NE63)
FER (human) = FER (human) (UniProt P16591)
RPS6KA4 KD2 (human) = RPS6KA4 KD2 (human) (UniProt O75676)
ADRBK2 (human) = ADRBK2 (human) (UniProt P35626)
MINK1 (human) = MINK1 (human) (UniProt Q8N4C8)
WNK2 (human) = WNK2 (human) (UniProt Q9Y3S1)
PRKCE (human) = PRKCE (human) (UniProt Q02156)
NEK3 (human) = NEK3 (human) (UniProt P51956)
TTK (human) = TTK (human) (UniProt P33981)
STK16 (human) = STK16 (human) (UniProt O75716)
STK11 (human) = STK11 (human) (UniProt Q15831)
CLK1 (human) = CLK1 (human) (UniProt P49759)
ALK (human) = ALK (human) (UniProt Q9UM73)
FRK (human) = FRK (human) (UniProt P42685)
Chain of FRK (human) (P42685 whole entry, looked up): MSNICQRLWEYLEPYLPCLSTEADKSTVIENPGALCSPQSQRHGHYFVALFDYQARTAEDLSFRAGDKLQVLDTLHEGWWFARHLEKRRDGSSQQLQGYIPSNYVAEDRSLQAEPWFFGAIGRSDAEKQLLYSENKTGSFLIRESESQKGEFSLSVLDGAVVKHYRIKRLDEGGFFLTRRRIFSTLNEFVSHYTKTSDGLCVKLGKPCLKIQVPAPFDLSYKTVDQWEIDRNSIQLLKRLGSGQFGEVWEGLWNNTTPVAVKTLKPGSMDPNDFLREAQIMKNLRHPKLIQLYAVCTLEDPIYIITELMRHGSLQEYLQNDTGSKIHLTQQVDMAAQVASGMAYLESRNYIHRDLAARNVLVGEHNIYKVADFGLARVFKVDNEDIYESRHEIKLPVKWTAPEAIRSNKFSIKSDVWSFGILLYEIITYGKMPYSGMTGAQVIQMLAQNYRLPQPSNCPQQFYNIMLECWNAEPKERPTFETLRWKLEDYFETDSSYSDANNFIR

Chain of RPS6KA4 KD2 (human) (O75676 whole entry, looked up): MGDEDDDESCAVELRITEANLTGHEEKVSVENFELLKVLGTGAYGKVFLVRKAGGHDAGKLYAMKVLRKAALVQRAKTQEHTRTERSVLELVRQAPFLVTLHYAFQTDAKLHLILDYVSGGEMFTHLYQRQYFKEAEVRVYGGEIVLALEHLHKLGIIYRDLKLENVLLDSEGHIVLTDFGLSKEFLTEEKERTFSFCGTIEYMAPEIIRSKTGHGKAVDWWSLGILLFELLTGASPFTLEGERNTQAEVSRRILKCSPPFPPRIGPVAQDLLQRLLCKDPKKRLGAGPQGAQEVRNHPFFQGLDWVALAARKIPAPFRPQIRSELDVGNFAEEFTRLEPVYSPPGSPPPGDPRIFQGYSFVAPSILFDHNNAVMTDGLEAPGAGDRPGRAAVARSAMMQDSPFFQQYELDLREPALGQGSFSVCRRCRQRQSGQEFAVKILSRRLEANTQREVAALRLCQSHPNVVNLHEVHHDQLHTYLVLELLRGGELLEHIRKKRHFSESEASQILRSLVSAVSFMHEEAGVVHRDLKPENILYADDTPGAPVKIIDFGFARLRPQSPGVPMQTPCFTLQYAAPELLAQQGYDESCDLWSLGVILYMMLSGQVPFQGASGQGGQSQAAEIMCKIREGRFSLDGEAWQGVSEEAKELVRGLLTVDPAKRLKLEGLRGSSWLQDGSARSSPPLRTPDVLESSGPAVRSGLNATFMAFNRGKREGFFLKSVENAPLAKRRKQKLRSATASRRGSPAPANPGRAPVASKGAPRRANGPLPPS
Chain of DAPK2 (human) (Q9UIK4 whole entry, looked up): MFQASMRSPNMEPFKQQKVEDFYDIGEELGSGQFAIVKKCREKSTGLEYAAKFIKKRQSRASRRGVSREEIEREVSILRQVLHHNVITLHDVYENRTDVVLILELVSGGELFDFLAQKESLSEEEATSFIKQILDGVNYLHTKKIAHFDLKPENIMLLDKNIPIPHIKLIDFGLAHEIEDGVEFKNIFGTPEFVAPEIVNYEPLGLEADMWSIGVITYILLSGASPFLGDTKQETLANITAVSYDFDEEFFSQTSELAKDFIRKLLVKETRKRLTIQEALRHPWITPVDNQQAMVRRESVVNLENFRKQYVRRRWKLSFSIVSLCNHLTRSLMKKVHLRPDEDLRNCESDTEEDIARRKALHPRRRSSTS
Chain of TTK (human) (P33981 whole entry, looked up): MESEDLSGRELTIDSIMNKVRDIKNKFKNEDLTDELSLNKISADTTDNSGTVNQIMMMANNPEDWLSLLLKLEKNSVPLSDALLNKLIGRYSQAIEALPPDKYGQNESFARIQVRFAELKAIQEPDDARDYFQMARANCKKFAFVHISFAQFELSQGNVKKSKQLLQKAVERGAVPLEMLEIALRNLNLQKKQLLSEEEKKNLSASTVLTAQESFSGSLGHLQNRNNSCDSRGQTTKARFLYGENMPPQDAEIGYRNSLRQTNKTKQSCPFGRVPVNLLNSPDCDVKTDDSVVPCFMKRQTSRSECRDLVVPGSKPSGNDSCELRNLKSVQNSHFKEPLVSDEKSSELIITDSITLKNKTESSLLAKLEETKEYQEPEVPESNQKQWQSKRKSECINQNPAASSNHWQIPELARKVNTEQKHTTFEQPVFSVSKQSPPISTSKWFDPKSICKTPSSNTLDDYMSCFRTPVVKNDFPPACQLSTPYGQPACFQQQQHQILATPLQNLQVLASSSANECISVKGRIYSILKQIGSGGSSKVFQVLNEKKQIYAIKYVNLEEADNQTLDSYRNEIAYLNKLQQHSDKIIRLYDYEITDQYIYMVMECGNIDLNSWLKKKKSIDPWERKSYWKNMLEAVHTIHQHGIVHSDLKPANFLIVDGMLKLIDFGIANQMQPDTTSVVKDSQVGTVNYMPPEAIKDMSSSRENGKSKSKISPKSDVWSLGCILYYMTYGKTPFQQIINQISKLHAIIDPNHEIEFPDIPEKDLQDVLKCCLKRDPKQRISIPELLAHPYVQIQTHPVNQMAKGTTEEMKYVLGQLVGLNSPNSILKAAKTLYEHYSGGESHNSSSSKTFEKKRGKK
Chain of CSNK1G2 (human) (P78368 whole entry, looked up): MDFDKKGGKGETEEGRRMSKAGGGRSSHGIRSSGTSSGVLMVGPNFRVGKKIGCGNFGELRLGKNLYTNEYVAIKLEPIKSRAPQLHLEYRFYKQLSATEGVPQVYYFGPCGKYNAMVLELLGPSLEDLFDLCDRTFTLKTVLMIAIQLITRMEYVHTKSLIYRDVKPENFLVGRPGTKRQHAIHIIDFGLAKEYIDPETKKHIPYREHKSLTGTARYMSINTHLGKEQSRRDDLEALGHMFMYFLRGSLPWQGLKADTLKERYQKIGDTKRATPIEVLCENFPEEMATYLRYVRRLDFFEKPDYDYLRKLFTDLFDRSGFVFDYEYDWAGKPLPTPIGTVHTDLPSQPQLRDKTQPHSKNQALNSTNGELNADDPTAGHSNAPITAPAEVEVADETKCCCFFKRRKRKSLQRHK
Chain of STK11 (human) (Q15831 whole entry, looked up): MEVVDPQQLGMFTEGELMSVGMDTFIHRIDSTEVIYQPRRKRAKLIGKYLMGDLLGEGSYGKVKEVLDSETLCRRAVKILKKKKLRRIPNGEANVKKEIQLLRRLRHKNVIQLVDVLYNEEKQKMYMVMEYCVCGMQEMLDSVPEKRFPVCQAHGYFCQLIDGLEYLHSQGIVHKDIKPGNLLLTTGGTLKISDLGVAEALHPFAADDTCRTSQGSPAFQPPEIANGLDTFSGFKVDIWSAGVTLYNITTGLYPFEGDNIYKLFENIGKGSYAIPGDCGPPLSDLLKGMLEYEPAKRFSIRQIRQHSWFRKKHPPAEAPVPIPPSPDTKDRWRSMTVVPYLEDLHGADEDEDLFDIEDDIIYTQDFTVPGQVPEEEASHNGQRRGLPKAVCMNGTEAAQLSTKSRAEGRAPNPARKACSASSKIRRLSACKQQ
Chain of STK16 (human) (O75716 whole entry, looked up): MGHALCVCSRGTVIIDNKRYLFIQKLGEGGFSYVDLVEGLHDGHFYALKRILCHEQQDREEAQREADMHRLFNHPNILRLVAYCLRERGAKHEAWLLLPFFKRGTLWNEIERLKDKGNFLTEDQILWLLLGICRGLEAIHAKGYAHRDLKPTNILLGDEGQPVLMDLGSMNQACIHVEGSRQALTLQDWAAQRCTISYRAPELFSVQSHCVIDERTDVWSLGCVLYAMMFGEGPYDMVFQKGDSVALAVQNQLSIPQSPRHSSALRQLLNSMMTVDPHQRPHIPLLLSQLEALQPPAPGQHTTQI
Chain of TYK2 JH1 catalytic (human) (P29597 whole entry, looked up): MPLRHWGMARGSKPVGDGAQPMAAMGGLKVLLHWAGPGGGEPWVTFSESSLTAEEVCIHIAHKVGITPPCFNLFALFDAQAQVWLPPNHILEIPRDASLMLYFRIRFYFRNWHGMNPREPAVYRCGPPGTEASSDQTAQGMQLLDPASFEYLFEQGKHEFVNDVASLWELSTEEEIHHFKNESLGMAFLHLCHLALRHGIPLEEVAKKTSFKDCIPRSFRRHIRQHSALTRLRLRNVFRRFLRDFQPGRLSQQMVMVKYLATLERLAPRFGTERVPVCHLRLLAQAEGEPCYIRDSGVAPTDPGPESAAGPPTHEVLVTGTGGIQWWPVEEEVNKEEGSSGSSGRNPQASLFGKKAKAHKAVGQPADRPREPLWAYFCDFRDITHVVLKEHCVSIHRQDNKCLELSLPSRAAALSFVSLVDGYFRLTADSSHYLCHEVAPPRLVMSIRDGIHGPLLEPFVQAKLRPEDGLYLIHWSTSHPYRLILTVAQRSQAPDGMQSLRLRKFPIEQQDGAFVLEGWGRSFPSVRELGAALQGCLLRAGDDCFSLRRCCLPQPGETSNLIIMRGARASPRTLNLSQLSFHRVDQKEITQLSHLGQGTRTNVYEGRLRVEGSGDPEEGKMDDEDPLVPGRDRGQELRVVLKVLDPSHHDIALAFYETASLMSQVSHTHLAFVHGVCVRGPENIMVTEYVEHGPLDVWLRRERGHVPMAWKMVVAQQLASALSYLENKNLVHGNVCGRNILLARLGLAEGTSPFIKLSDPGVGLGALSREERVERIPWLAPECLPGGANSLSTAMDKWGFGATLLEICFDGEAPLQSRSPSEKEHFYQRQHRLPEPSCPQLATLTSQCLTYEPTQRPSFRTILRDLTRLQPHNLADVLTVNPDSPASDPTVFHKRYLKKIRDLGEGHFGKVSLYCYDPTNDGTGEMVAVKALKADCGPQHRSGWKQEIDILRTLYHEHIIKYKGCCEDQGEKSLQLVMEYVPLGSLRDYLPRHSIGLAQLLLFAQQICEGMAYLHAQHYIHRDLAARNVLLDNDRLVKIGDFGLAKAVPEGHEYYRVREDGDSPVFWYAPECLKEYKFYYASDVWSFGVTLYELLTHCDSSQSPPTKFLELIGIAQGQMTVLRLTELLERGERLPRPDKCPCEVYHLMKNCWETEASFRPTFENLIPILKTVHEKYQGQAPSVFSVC

## Cc1cc2ncc(-c3ccccc3)nc2cc1C
MAPKAPK3 (human)
  residual activity: 100%
MAPK9 (human)
  residual activity: 104%
SYK (human)
  residual activity: 97.4%
CSNK1G2 (human)
  residual activity: 86.5%
[1]
  residual activity: 97.6%
BRSK1 (human)
  residual activity: 95.1%
RPS6KA6 KD1 KD2 (human)
  residual activity: 98.2%
ULK1 (human)
  residual activity: 84.1%
MAPK13 (human)
  residual activity: 107%
PDPK1 (human)
  residual activity: 103%
RPS6KA2 KD1 KD2 (human)
  residual activity: 92.5%
PRKCB1 (human)
  residual activity: 103%
PTK6 (human)
  residual activity: 93.6%
TAOK1 (human)
  residual activity: 94.3%
NTRK2 (human)
  residual activity: 103%
ROS1 (human)
  residual activity: 100%
DAPK3 (human)
  residual activity: 90.3%
EPHB2 (human)
  residual activity: 96.7%
CDK1 CCNB1 (human)
  residual activity: 108%
MET (human)
  residual activity: 95.1%
MAP4K4 (human)
  residual activity: 85%
AXL (human)
  residual activity: 100%
ZAP70 (human)
  residual activity: 96.7%
DAPK2 (human)
  residual activity: 92.6%
CDK2 CCNA2 (human)
  residual activity: 99.3%
LIMK1 (human)
  residual activity: 102%
CAMK2A (human)
  residual activity: 98.4%
TGFBR1 (human)
  residual activity: 94.7%
HIPK4 (human)
  residual activity: 120%
FER (human)
  residual activity: 91%
RPS6KA4 KD2 (human)
  residual activity: 99.4%
ADRBK2 (human)
  residual activity: 87.4%
MINK1 (human)
  residual activity: 91.8%
WNK2 (human)
  residual activity: 98.8%
PRKCE (human)
  residual activity: 99.6%
NEK3 (human)
  residual activity: 93.7%
TTK (human)
  residual activity: 91%
STK16 (human)
  residual activity: 108%
STK11 (human)
  residual activity: 94%
CLK1 (human)
  residual activity: 95.4%
ALK (human)
  residual activity: 98%
FRK (human)
  residual activity: 99.1%

## O=C(Nc1ccc(Cl)cc1)c1ccccc1NCc1ccncc1
MAPKAPK3 (human)
  residual activity: 91.4%
MAPK9 (human)
  residual activity: 102%
SYK (human)
  residual activity: 93.6%
CSNK1G2 (human)
  residual activity: 88.3%
[1]
  residual activity: 92.1%
BRSK1 (human)
  residual activity: 94%
RPS6KA6 KD1 KD2 (human)
  residual activity: 104%
ULK1 (human)
  residual activity: 86.9%
MAPK13 (human)
  residual activity: 95.6%
PDPK1 (human)
  residual activity: 95.3%
RPS6KA2 KD1 KD2 (human)
  residual activity: 94.1%
PRKCB1 (human)
  residual activity: 98.1%
PTK6 (human)
  residual activity: 63.6%
TAOK1 (human)
  residual activity: 110%
NTRK2 (human)
  residual activity: 102%
ROS1 (human)
  residual activity: 100%
DAPK3 (human)
  residual activity: 94%
EPHB2 (human)
  residual activity: 84.7%
CDK1 CCNB1 (human)
  residual activity: 96.3%
MET (human)
  residual activity: 92.2%
MAP4K4 (human)
  residual activity: 88.7%
AXL (human)
  residual activity: 98.1%
ZAP70 (human)
  residual activity: 103%
DAPK2 (human)
  residual activity: 98.4%
CDK2 CCNA2 (human)
  residual activity: 92.2%
LIMK1 (human)
  residual activity: 83.4%
CAMK2A (human)
  residual activity: 99.9%
TGFBR1 (human)
  residual activity: 100%
HIPK4 (human)
  residual activity: 103%
FER (human)
  residual activity: 80.4%
RPS6KA4 KD2 (human)
  residual activity: 90.2%
ADRBK2 (human)
  residual activity: 96.1%
MINK1 (human)
  residual activity: 96.9%
WNK2 (human)
  residual activity: 101%
PRKCE (human)
  residual activity: 97%
NEK3 (human)
  residual activity: 90.5%
TTK (human)
  residual activity: 102%
STK16 (human)
  residual activity: 94.1%
STK11 (human)
  residual activity: 93.5%
CLK1 (human)
  residual activity: 102%
ALK (human)
  residual activity: 103%
FRK (human)
  residual activity: 62.8%

## NC(=O)c1ccc(N(C(N)=O)c2c(F)cccc2F)nc1-c1ccc(F)cc1F
MAPKAPK3 (human)
  residual activity: 99.1%
MAPK9 (human)
  residual activity: 93.5%
SYK (human)
  residual activity: 110%
CSNK1G2 (human)
  residual activity: 99.6%
[1]
  residual activity: 93.5%
BRSK1 (human)
  residual activity: 94.2%
RPS6KA6 KD1 KD2 (human)
  residual activity: 101%
ULK1 (human)
  residual activity: 104%
MAPK13 (human)
  residual activity: 94%
PDPK1 (human)
  residual activity: 87.4%
RPS6KA2 KD1 KD2 (human)
  residual activity: 97.5%
PRKCB1 (human)
  residual activity: 86.1%
PTK6 (human)
  residual activity: 98.7%
TAOK1 (human)
  residual activity: 96.2%
NTRK2 (human)
  residual activity: 102%
ROS1 (human)
  residual activity: 95%
DAPK3 (human)
  residual activity: 107%
EPHB2 (human)
  residual activity: 107%
CDK1 CCNB1 (human)
  residual activity: 95.7%
MET (human)
  residual activity: 89.4%
MAP4K4 (human)
  residual activity: 108%
AXL (human)
  residual activity: 101%
ZAP70 (human)
  residual activity: 100%
DAPK2 (human)
  residual activity: 86.8%
CDK2 CCNA2 (human)
  residual activity: 87.8%
LIMK1 (human)
  residual activity: 98.5%
CAMK2A (human)
  residual activity: 90.9%
TGFBR1 (human)
  residual activity: 96.7%
HIPK4 (human)
  residual activity: 90.5%
FER (human)
  residual activity: 95.6%
RPS6KA4 KD2 (human)
  residual activity: 99%
ADRBK2 (human)
  residual activity: 98.1%
MINK1 (human)
  residual activity: 100%
WNK2 (human)
  residual activity: 96.4%
PRKCE (human)
  residual activity: 101%
NEK3 (human)
  residual activity: 96%
TTK (human)
  residual activity: 98.8%
STK16 (human)
  residual activity: 100%
STK11 (human)
  residual activity: 99.5%
CLK1 (human)
  residual activity: 108%
ALK (human)
  residual activity: 99.6%
FRK (human)
  residual activity: 106%

## Nc1nc(Nc2ccc(S(N)(=O)=O)cc2)nn1C(=S)Nc1c(F)cccc1F
MAPKAPK3 (human)
  residual activity: 89.6%
MAPK9 (human)
  residual activity: 80.9%
SYK (human)
  residual activity: 15.5%
CSNK1G2 (human)
  residual activity: 14.8%
[1]
  residual activity: 5.11%
BRSK1 (human)
  residual activity: 2.61%
RPS6KA6 KD1 KD2 (human)
  residual activity: 2.42%
ULK1 (human)
  residual activity: 5.03%
MAPK13 (human)
  residual activity: 77.1%
PDPK1 (human)
  residual activity: 19.3%
RPS6KA2 KD1 KD2 (human)
  residual activity: 2.08%
PRKCB1 (human)
  residual activity: 75.2%
PTK6 (human)
  residual activity: 34.8%
TAOK1 (human)
  residual activity: 11.3%
NTRK2 (human)
  residual activity: 11.8%
ROS1 (human)
  residual activity: 1.68%
DAPK3 (human)
  residual activity: 94.2%
EPHB2 (human)
  residual activity: 81.4%
CDK1 CCNB1 (human)
  residual activity: -1.78%
MET (human)
  residual activity: 40.4%
MAP4K4 (human)
  residual activity: 4.46%
AXL (human)
  residual activity: 34.2%
ZAP70 (human)
  residual activity: 86.9%
DAPK2 (human)
  residual activity: 83%
CDK2 CCNA2 (human)
  residual activity: 1.56%
LIMK1 (human)
  residual activity: -0.611%
CAMK2A (human)
  residual activity: 14.3%
TGFBR1 (human)
  residual activity: 81.8%
HIPK4 (human)
  residual activity: 50.6%
FER (human)
  residual activity: 21.7%
RPS6KA4 KD2 (human)
  residual activity: 42.8%
ADRBK2 (human)
  residual activity: 88%
MINK1 (human)
  residual activity: 3.06%
WNK2 (human)
  residual activity: 97.9%
PRKCE (human)
  residual activity: 11.5%
NEK3 (human)
  residual activity: 19.6%
TTK (human)
  residual activity: 60.6%
STK16 (human)
  residual activity: 42.5%
STK11 (human)
  residual activity: 23.5%
CLK1 (human)
  residual activity: 2.26%
ALK (human)
  residual activity: 16.7%
FRK (human)
  residual activity: 70.6%
